Like-named read-outs stand apart in the source and are kept apart here.
Tests used:
[1] = over 22 hours
Mtb20SOG [2] = target: T1, Mtb20SOG (Mycobacterium tuberculosis, UniProt P9WHT9)
[3] = tested on: mycobacterial proteasome in M. bovis strain BCG; type: cell-based; conditions: for protection of mycobacterial proteasome from HT1171: then HT1171 25 μM 1 hour
human c-20S β5c = human c-20S β5c (Homo sapiens, UniProt P20618+P28074); assay: Inhibition of human constitutive 20S β5c; type: biochemical; conditions: read-out: Ki μM β5c; Table 2
Mtb20SOG [4] = target: Mtb20SOG
Mtb20SOG [5] = target: T1, Mtb20SOG; remark: listed apart in the source
human i-20S β5i = human i-20S β5i (Homo sapiens, UniProt P20618+P28062); assay: Inhibition of human immunoproteasome β5i; type: biochemical; conditions: Table 2

T1 sequence (P9WHT9 58-291): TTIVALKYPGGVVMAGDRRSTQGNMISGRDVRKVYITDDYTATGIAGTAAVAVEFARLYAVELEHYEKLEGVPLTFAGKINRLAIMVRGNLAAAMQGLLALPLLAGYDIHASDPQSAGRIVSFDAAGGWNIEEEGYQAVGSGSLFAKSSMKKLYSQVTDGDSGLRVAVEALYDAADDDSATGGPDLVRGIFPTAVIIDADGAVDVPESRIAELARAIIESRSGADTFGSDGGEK

Row | Structure (SMILES) | stability in human plasma [1] | apparent kon (Mtb20SOG [2]) | dissociation rate constant koff (Mtb20SOG [2]) [s⁻¹] | mode of inhibition of Mtb20SOG (Mtb20SOG [2]) | Ki (Mtb20SOG [2]; read-out: Ki^app calculated from koff/kon) [nM] | Ki (Mtb20SOG [2]; read-out: apparent Ki^app against Mtb20SOG) [nM] | protection of mycobacterial proteasome from HT1171 ([3]; DPLG-2 1 μM 4 hours) | protection of mycobacterial proteasome from HT1171 ([3]; DPLG-2 10 μM 4 hours) | protection of mycobacterial proteasome from HT1171 ([3]; DPLG-2 50 μM 4 hours) | Ki (human c-20S β5c) [µM] | Ki(β5c)/Ki(Mtb) (Mtb20SOG [4]) | species selectivity for Mtb20SOG over human constitutive proteasome β5 subunit (Mtb20SOG [4]) [fold] | increase in potency against Mtb20SOG compared to ML9 (Mtb20SOG [5]) [fold] | Ki (Mtb20SOG [5]; read-out: Ki μM Mtb20SOG) [µM] | Ki(β5i)/Ki(Mtb) (human i-20S β5i) | Ki (human i-20S β5i; read-out: Ki μM β5i) [µM] | inhibition of proteasomes in intact BCG ([3]; HT1171 25 μM, 1 hour, absence of DPLG-2)
1 | CCN(CC)C(=O)C[C@H](NC(=O)CCc1ccccc1)C(=O)N[C@@H](Cc1ccc(F)cc1)C(=O)NCc1cccc2ccccc12 [DPLG-2] | stable | 5.7 ± 0.2 × 10^4 M^−1s^−1 | 0.0015 ± 0.0001 | time-dependent manner | 26.3 | 24.2 ± 0.9 | HT1171 inhibited the proteasomes irreversibly | able to shield the mycobacterial proteasome active sites from HT1171 | able to shield the mycobacterial proteasome active sites from HT1171 | 70 | 4670 | 4670 | 4 | 0.015 | 3650 | 54.7 | 
2 | Cc1sc(-c2nsc(=O)o2)cc1[N+](=O)[O-] [HT1171, reference compound] |  |  |  |  |  |  |  |  |  |  |  |  |  |  |  |  | inhibited the proteasomes irreversibly

Reference: PMC3773049 (Journal of the American Chemical Society, 2013)
